Relative viability data for one cell line are collected here from the supplement of paper PMC10307832.

What all share (assay): relative viability (nuclei count vs DMSO), 5 days (fraction); higher = more cells survive
Compound in assay [1]: CN1C=C(C2=CC=CC=C21)/C=C\3/C4=C(C=CC=N4)NC3=O + C[C@@H](Oc1cc(-c2cnn(C3CCNCC3)c2)cnc1N)c1c(Cl)ccc(F)c1Cl [Crizotinib] (partner 1 µM)
The method in brief: (§1)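 For relative viability, nuclei counts in treated wells were divided by those in vehicle wells. Lung cancer cell lines had been pin-tool dosed in 1536-well plates the day after seeding and cultured for 5 days, then fixed and stained in one step (final 0.05% Triton X-100, 1% formaldehyde, 1 ug/ml Hoechst) and imaged at 4×. Doses were one drug alone or a fixed anchor-drug dose plus five library-drug doses (not always all listed) in √10 steps, and values are duplicate-plate medians.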

Compound in assay [2]: CN1C=C(C2=CC=CC=C21)/C=C\3/C4=C(C=CC=N4)NC3=O + CC1(C)CCC(c2ccc(Cl)cc2)=C(CN2CCN(c3ccc(C(=O)NS(=O)(=O)c4ccc(N[C@H](CCN5CCOCC5)CSc5ccccc5)c(S(=O)(=O)C(F)(F)F)c4)cc3)CC2)C1 [Navitoclax] (partner 0.5 µM)
In outline:
as §1

Compound in assay [3]: CN1C=C(C2=CC=CC=C21)/C=C\3/C4=C(C=CC=N4)NC3=O + COc1cccc2cc(-c3nc([C@H]4CC[C@H](C(=O)O)CC4)n4ncnc(N)c34)[nH]c12 [OSI-027] (partner 0.5 µM)
The method in brief:
as §1

Compound in assay [4]: CC(=O)Nc1cccc(-n2c(=O)n(C3CC3)c(=O)c3c(Nc4ccc(I)cc4F)n(C)c(=O)c(C)c32)c1 [Trametinib] + CCNC(=O)c1noc(-c2cc(C(C)C)c(O)cc2O)c1-c1ccc(CN2CCOCC2)cc1 [Luminespib] (partner 0.01 µM)
The method in brief: as §1

Take UMC-11: the relative viability came to 0.448 in assay [1] (first compound 0.02 µM); 0.543 in assay [1] (first compound 0.06325 µM); 0.578 in assay [1] (first compound 0.2 µM); 0.855 in assay [1] (first compound 0.6325 µM); 0.786 in assay [1] (first compound 2 µM); 0.24 in assay [2] (first compound 0.02 µM). Moreover, the relative viability worked out at 0.318 in assay [2] (first compound 0.06325 µM); 0.288 in assay [2] (first compound 0.2 µM); 0.362 in assay [2] (first compound 0.6325 µM); 0.391 in assay [2] (first compound 2 µM); 0.513 in assay [3] (first compound 0.02 µM); 0.49 in assay [3] (first compound 0.06325 µM). Further, the relative viability in assay [3] (first compound 0.2 µM) was found to be 0.461; in assay [3] (first compound 0.6325 µM), 0.536; in assay [3] (first compound 2 µM), 0.494; in assay [4] (first compound 0.0025 µM), 1.05; in assay [4] (first compound 0.007906 µM), 1.08; in assay [4] (first compound 0.025 µM) it was 0.951. For the same cell line, the relative viability in assay [4] (first compound 0.07906 µM) stood at 1.04; in assay [4] (first compound 0.25 µM), 0.945.
